Reference: publication PMC9775191, “A Subset Screen of the Compounds Australia Scaffold Library Identifies 7-Acylaminodibenzoxazepinones as Potent and Selective Hits for Anti-Giardia Drug Discovery” (Biomedicines, 2022)
Like-named read-outs stand apart in the source and are kept apart here.

Legend:
[1] = test system: G. duodenalis BRIS/91/HEPU/1279; assay: Primary Giardia screen at 10 µM (live-cell imaging, automated counting); type: cell-based, Giardia duodenalis; conditions: for inhibition at 10 µM: Giardia duodenalis
Summary of the method: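 Compounds were tested once each at 10 μM final (0.2% DMSO) in culture medium under 3% O2, 5% CO2 in N2. Growth was read at 24 and 48 h by live-cell imaging with automated counting, and inhibition expressed as percent growth versus 0.2% DMSO vehicle after media-only background subtraction.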

[2] = test system: G. duodenalis BRIS/91/HEPU/1279; assay: Giardia dose response assay, assemblage B; type: cell-based, Giardia duodenalis; conditions: Giardia duodenalis; for IC50: ±SD, max 10 µM; for inhibition at 10 µM: read-out: % inhibition @ 10µM 48h (comment), Table S2 comment
Method: In these assays, compounds were serially diluted (8–12-point doubling dilutions in technical duplicate) in DMSO control media, with all test wells inoculated with parasites (1.5 × 10^4 parasites for BRIS/91/HEPU/1279 and BRIS/91/HEPU/1279m1, or 3 × 10^3 parasites for BRIS/87/HEPU/713). […] All plates were sealed in culture chambers and gassed with 3% O2, 5% CO2 in N2 and incubated at 37 °C for 48 h, with parasites imaged and enumerated at 24 and 48 h. Growth inhibition was calculated as a percentage relative to vehicle controls minus any background as described above and IC50 values were determined using log-linear interpolation as previously described. […] Statistical comparison of IC50 values when required were performed using Student’s t-test.

[3] = test system: Neonatal foreskin fibroblast (NFF) cells; assay: Mammalian cell cytotoxicity assay (sulforhodamine B); type: cell-based, human; conditions: for inhibition at 20 µM: ±SD; for SI (48h Gd): NFF vs 48 h Giardia IC50
Method: The selectivity of compounds of interest was assessed against NFF cells. Assays were performed using sulforhodamine B and included media only, negative (no compound, no DMSO), and vehicle (DMSO) controls as previously described. A chloroquine control plate was included in each assay. […] Repurchased SN00797640 was tested in dose–response from 100 µM against NFF. Selectivity indices (SI) were calculated by dividing mammalian cell IC50 values by G. duodenalis BRIS/91/HEPU/1279 IC50 values.

[4] = test system: Acinetobacter baumannii (ATCC 19606); assay: Anti-bacterial activity assay; type: cell-based; conditions: ATCC19606, 50 µM
Method: (§1) The activity of compounds against methicillin resistant Staphylococcus aureus (ATCC 43300), Escherichia coli (ATCC 25922), Acinetobacter baumannii (ATCC 19606) and Klebsiella pneumoniae (ATCC 700603) was assessed at 50 µM in duplicate as previously described. In brief, mid-log phase bacteria cultures were added to 384-well microtiter plate wells containing compound to final cell density of 5 × 10^5 CFU/mL in 50 µL. Plates were then covered and incubated at 37 °C for 18 h without shaking. Inhibition of bacterial growth was determined by measuring absorbance at 600 nm (Tecan M1000 Pro monochromator plate reader) and calculating percentage growth inhibition relative to the negative media and bacteria without inhibitors. Vancomycin hydrochloride (Sigma-Aldrich an affiliate of Merck KGaA, Darmstadt, Germany, #861987) and colistin sulfate (Sigma-Aldrich an affiliate of Merck KGaA, Darmstadt, Germany, C4461) were on each plate as positive controls for Gram-positive (S. aureus) and Gram-negative (E. coli, A. baumannii and K. pneumoniae) bacteria, respectively.

[5] = test system: Escherichia coli (ATCC 25922); assay: Anti-bacterial activity assay; type: cell-based; conditions: Escherichia coli, ATCC25922, 50 µM; read-out: Bacterial Inhibition E. coli
Method: as §1

[6] = test system: Klebsiella pneumoniae (ATCC 700603); assay: Anti-bacterial activity assay; type: cell-based; conditions: ATCC700603, 50 µM, read-out: Bacterial Inhibition K. pneumoniae
Method: as §1

[7] = test system: methicillin resistant Staphylococcus aureus (ATCC 43300); assay: Anti-bacterial activity assay; type: cell-based; conditions: Staphylococcus aureus, ATCC43300, 50 µM; read-out: Bacterial Inhibition S. aureus
Method: as §1

[8] = 24 h, first singlicate assay, read-out: % Inhibition n=1 24h
[9] = 24 h, re-assessment, read-out: % Inhibition n=2 24h
[10] = 24 h, read-out: Average % Inhibition 24h
[11] = 48 h, first singlicate assay, read-out: % Inhibition n=1 48h
[12] = 48 h, re-assessment, read-out: % Inhibition n=2 48h
[13] = 48 h, read-out: Average % Inhibition 48h
[14] = 24 h, read-out: G. duodenalis IC50 24h, Table S2, 24 h
[15] = 48 h, Table S2, 48 h, read-out: G. duodenalis IC50 48h

Compound | inhibition at 10 µM [1, 8] [%] | inhibition at 10 µM [1, 9] [%] | inhibition at 10 µM [1, 10] [%] | inhibition at 10 µM [1, 11] [%] | inhibition at 10 µM [1, 12] [%] | inhibition at 10 µM [1, 13] [%] | IC50 [2, 14] [µM] | IC50 [2, 15] [µM] | inhibition at 20 µM ([3]; Homo sapiens, NFF) [%] | inhibition at 50 µM [4] [%] | inhibition at 50 µM [5] [%] | inhibition at 50 µM [6] [%] | inhibition at 50 µM [7] [%] | inhibition at 10 µM ([2]; 48 h) [%] | SI (48h Gd) ([3]; Table S2) | Average % Inhibition 48h ([1]; 48 h) [%] | IC50 ([3]; Homo sapiens, NFF, Table S2, max 10 µM, read-out: NFF IC50) [µM]
COc1cc(NS(=O)(=O)c2ccc(C)cc2)cc2sc(NC(=O)c3ccccc3)nc12 [SN00790147, COc1cc(cc2sc(NC(=O)c3ccccc3)nc12)NS(=O)(=O)c1ccc(C)cc1] | 34.5 | 12.8 | 23.6 | 56.9 | 43.2 | 50.1 | > 10 | > 10 | 53.3 ± 7.1 | 3.03 | -1.53 | 6.94 | 11.9 | – | – | – | –
CCc1nnc2c3ccccc3nc(N3CCN(c4cccc(Cl)c4)CC3)n12 [SN00788523, CCc1nnc2n1c(nc1ccccc21)N1CCN(CC1)c1cccc(Cl)c1] | 38.2 | 28.9 | 33.6 | 65.8 | 80.4 | 73.1 | > 10 | 6.91 | -0.2 ± 22.2 | 1.85 | 2.37 | 22.1 | 1.08 | 44 | > 2 | – | –
Cc1cccc(CNS(=O)(=O)c2cc(-c3csc(C)n3)sc2C)c1 [SN00798431, Cc1cccc(CNS(=O)(=O)c2cc(sc2C)c2csc(C)n2)c1] | 30.2 | 12.3 | 21.2 | 59.2 | 68.1 | 63.6 | > 10 | 5.93 ± 5.7 | 19.3 ± 27 | 42.5 | -0.77 | 13.7 | 13.3 | – | > 3 | – | –
Cc1ccc(NC(=O)CN2C(=O)C3CCCCN3c3ccc(C(=O)N4CCCC4)cc32)cc1 (centres unmarked) [SN00792764, Cc1ccc(cc1)NC(=O)CN1C(=O)C2CCCCN2c2ccc(cc12)C(=O)N1CCCC1] | 43.9 | 27.1 | 35.5 | 59 | 65.8 | 62.4 | > 10 | > 10 | 16.6 ± 20.4 | 4.12 | 3.43 | 5.08 | -1.85 | 45.9 | – | – | –
Cc1ccc(NC(=O)c2cc3c(Cl)ccc4c3n2CCO4)cc1 [SN00788144, Cc1ccc(cc1)NC(=O)c1cc2c(Cl)ccc3OCCn1c23] | 41 | 20.1 | 30.5 | 65.8 | 32.9 | 49.3 | > 10 | > 10 | 31.4 ± 11.3 | 20.8 | 2.85 | 13.5 | -2.91 | – | – | – | –
O=S1(=O)CCC(n2cc(-c3cnn(-c4ccccc4)c3)cn2)C1 (centres unmarked) [SN00776738, O=S1(=O)CCC(C1)n1ncc(c1)c1cnn(c1)c1ccccc1] | 46.8 | 44.3 | 45.5 | 52.3 | 80.1 | 66.2 | > 10 | > 10 | 16 ± 0.6 | -4.28 | 5.37 | 6.87 | -13.4 | – | – | – | –
O=[N+]([O-])c1cc(F)ccc1Sc1nnc(N2CCOCC2)s1 [SN00781107, Fc1ccc(Sc2nnc(s2)N2CCOCC2)c(c1)N(=O)=O] | 34 | 27.7 | 30.8 | 64.2 | 57.4 | 60.8 | 6.87 ± 1.88 | 1.86 ± 2.52 | -19.8 ± 44.9 | 3.43 | 2.28 | 10.6 | 4.13 | – | – | – | –
Cc1ccc(-n2c(=O)c3c(cnn3C)n(CC(=O)Nc3ccccc3C)c2=O)cc1 [SN00784346, Cc1ccc(cc1)n1c(=O)n(CC(=O)Nc2ccccc2C)c2cnn(C)c2c1=O] | 52 | 55.8 | 53.9 | 77.6 | 76.3 | 76.9 | > 10 | 7.66 | -1.1 ± 0.8 | 0.24 | 3.09 | -2.01 | 5.68 | – | > 2 | – | –
Cc1ccc(C)c(-c2cc3c4nn(CC(=O)N(C)c5ccc(F)cc5)c(=O)n4ccn3n2)c1 [SN00790641, Fc1ccc(cc1)N(C)C(=O)Cn1nc2c3cc(nn3ccn2c1=O)c1cc(C)ccc1C] | 88.6 | 70.6 | 79.6 | 95 | 97.7 | 96.3 | 2.84 | 3.41 ± 2.02 | 40.4 ± 1.1 | 4.72 | 0.25 | 6.73 | -6.6 | – | > 5 | > 90 | –
Nc1c(-c2nc(-c3ccccc3)cs2)c2ccccn2c1C(=O)c1ccc2c(c1)OCO2 [SN00785732, O=C(c1ccc2OCOc2c1)c1c(N)c(c2scc(n2)c2ccccc2)c2ccccn12] | 64.4 | 62 | 63.2 | 82.4 | 83.8 | 83.1 | 7.64 | 7.68 | 41.6 ± 2.7 | 9.69 | 0.23 | 9.49 | 2.41 | – | > 2 | – | –
CN(C)CCn1cc(C(=O)c2cc(Cl)ccc2O)cc1-c1nc2ccccc2c(=O)[nH]1 [SN00778038, CN(C)CCn1cc(cc1c1nc2ccccc2c(=O)[nH]1)C(=O)c1cc(Cl)ccc1O] | 45.3 | 44.7 | 45 | 85.2 | 86.5 | 85.8 | > 10 | 6.39 ± 2.8 | 8.4 ± 4.7 | -8.73 | -2.44 | -1.96 | -9.58 | – | > 5 | – | –
Cc1cc2[nH]c(C(=O)Nc3ccccc3C)c(CN3CCOCC3)c2s1 [SN00798525, Cc1cc2[nH]c(C(=O)Nc3ccccc3C)c(CN3CCOCC3)c2s1] | 91.4 | 97.9 | 94.7 | 96.5 | 98.8 | 97.6 | – | – | – | 4.92 | -0.27 | 6.11 | 22.2 | – | – | > 90 | > 10
